Test results reported in patent US20240381822A1, “PLANT PART QUALITY” (Valent BioSciences LLC, priority 2023, published 2024).

Columns and labels:
Type in all cases: in vivo
Cucumbers [1] = assay: Electrolyte leakage of cucumbers after cold storage (Example 3); settings: for % Electrolyte Leakage: 2-minute dip, 5 degrees Celsius 11.5 days, then room temperature
Source text: Cucumbers were harvested and waxed and maintained at room temperature until treatment. Cucumbers were divided into 9 equal sets. Each treatment type contained 11-13 cucumbers peaches and was repeated 3 times for a total of 33-39 peaches per treatment. For treatment, water, (S)-abscisic acid (“S-ABA”), methyl jasmonate or a mixture of S-ABA and methyl jasmonate were applied to cucumber after harvest via a 2-minute dip at the following concentrations: 1) water only; 2) 0.3 millimolar (“mM”) S-ABA; 3) 3 mM S-ABA; 4) 0.3 mM methyl jasmonate; 5) 3 mM methyl jasmonate; 6) 0.3 mM S-ABA and 0.3 mM methyl jasmonate; 7) 0.3 mM S-ABA and 3 mM methyl jasmonate; 8) 3 mM S-ABA and 0.3 mM methyl jasmonate or 9) 3 mM S-ABA and 3 mM methyl jasmonate. Each treatment includes 0.025% Latron B-1956® (available from J. R. Simplot Company) as an adjuvant. All cucumbers were subsequently dried for 30 minutes and then stored at 5 degrees Celsius for 11.5 days. Following cold storage all cucumbers were placed at room temperature for 4 days and then evaluated for electrolyte leakage and decay on each of days 1, 2,3 and 4. For electrolyte leakage cucumbers were sliced and a 1-centimeter core sample (i.e. a disc) was taken from each slice. 10 discs were placed in each 50-milliliter centrifuge tube containing 30 milliliter of deionized water and shaken for 25 minutes. Electroconductivity was measured at time zero as soon as the treatments were processed (CO). Electroconductivity was measured again after the discs were shaken in the centrifuge tubes (C1). Finally, electroconductivity was measured after boiling the cucumber sample for 20 minutes and then cooled rapidly (C2). % electrolyte leakage was calculated by the following formula (C1−C0)/C2. Determination of unexpected results was calculated using the method described in Example 1. above.

[2] = tested on: Summer Flame 34 variety Peaches; assay: Flesh browning of waxed peaches after cold storage (Example 2); settings: for Fold Change from Control (Flesh Browning Average Score): 1.2 mM single active; for Flesh Browning Average Score: 1.2 mM single active in Prima Fresh 55EU wax, 5 degrees Celsius 25 days, 3 day room temperature, 6-point scale
Description: Flesh browning was determined using a 6-point scale developed by Crisosto G. M. 2015 wherein a score of 1=no browning, 2=very slight browning in the pit cavity, 3=slight browning in the pit cavity and surrounding tissue, 4=moderate browning on less than 50% of the flesh, 5=severe browning on 50% to 75% of the flesh and 6=extreme browning covering most of the flesh. A flesh browning score of more than 3 was determined as a “flesh browning incident” and a score of less than 3 was determined as “healthy fruit” for efficacy purposes.
(§1) Summer Flame 34 variety Peaches were harvested and maintained at room temperature until treatment. Peaches were divided into 4 equal sets. Each treatment type contained 32 peaches and was repeated 3 times for a total of 96 peaches per treatment. For treatment, water, (S)-abscisic acid (“S-ABA”), methyl jasmonate or a mixture of S-ABA and methyl jasmonate were mixed in Prima Fresh 55EU wax and applied in a semicommercial mini packing line to simulate commercial packing conditions. Active ingredients were mixed into the wax at the following concentrations: 1) wax only; 2) 1.2 mM S-ABA; 3) 1.2 mM methyl jasmonate; 4) 1.2 mM S-ABA and 1.2 mM methyl jasmonate. All peaches were immediately stored at 5 degrees Celsius for 25 days. Following cold storage all peaches were placed at room temperature for 3 day and then evaluated for flesh browning as described in Example 1, above and also for flesh mealiness.
(§2) Determination of unexpected results was calculated using the method described in Example 1, above.

Cucumbers [3] = assay: Decay evaluation of cucumbers after cold storage (Example 3); settings: for % Healthy Fruit (decay): 2-minute dip, 5 degrees Celsius 11.5 days, then room temperature, 100% minus % disease incidence
Source text: Cucumbers were harvested and waxed and maintained at room temperature until treatment. Cucumbers were divided into 9 equal sets. Each treatment type contained 11-13 cucumbers peaches and was repeated 3 times for a total of 33-39 peaches per treatment. For treatment, water, (S)-abscisic acid (“S-ABA”), methyl jasmonate or a mixture of S-ABA and methyl jasmonate were applied to cucumber after harvest via a 2-minute dip at the following concentrations: 1) water only; 2) 0.3 millimolar (“mM”) S-ABA; 3) 3 mM S-ABA; 4) 0.3 mM methyl jasmonate; 5) 3 mM methyl jasmonate; 6) 0.3 mM S-ABA and 0.3 mM methyl jasmonate; 7) 0.3 mM S-ABA and 3 mM methyl jasmonate; 8) 3 mM S-ABA and 0.3 mM methyl jasmonate or 9) 3 mM S-ABA and 3 mM methyl jasmonate. Each treatment includes 0.025% Latron B-1956® (available from J. R. Simplot Company) as an adjuvant. All cucumbers were subsequently dried for 30 minutes and then stored at 5 degrees Celsius for 11.5 days. Following cold storage all cucumbers were placed at room temperature for 4 days and then evaluated for electrolyte leakage and decay on each of days 1, 2,3 and 4. Decay evaluation was performed by counting the number of cucumbers displaying decay and calculating the percentage of affected cucumbers. Decay severity was evaluated using a 1-3 score system, wherein 1=low, 2=medium and 3=high. Healthy fruit was calculated by subtracting the % of disease incidence from 100%. Determination of unexpected results was calculated using the method described in Example 1. above.

[4] = tested on: Flamin' Fury® variety Peaches; assay: Flesh browning of peaches after cold storage (Example 1); settings: for % Healthy Fruit: 1-minute dip, 5 degrees Celsius 4 weeks, 1 day room temperature, flesh browning score less than 3
Description: ' Fury® variety Peaches were harvested and maintained at room temperature until treatment. Peaches were divided into 9 equal sets. Each treatment type contained 15 peaches and was repeated 3 times for a total of 45 peaches per treatment. For treatment, water, (S)-abscisic acid (“S-ABA”), methyl jasmonate or a mixture of S-ABA and methyl jasmonate were applied to peaches after harvest via a 1-minute dip at the following concentrations: 1) water only; 2) 0.33 millimolar (“mM”) S-ABA; 3) 3.3 mM S-ABA; 4) 0.33 mM methyl jasmonate; 5) 3.3 mM methyl jasmonate; 6) 0.33 mM S-ABA and 0.33 mM methyl jasmonate; 7) 0.3 mM S-ABA and 3.3 mM methyl jasmonate; 8) 3.3 mM S-ABA and 0.33 mM methyl jasmonate or 9) 3.3 mM S-ABA and 3.3 mM methyl jasmonate. Each treatment includes 0.025% Latron B-1956® (available from J. R. Simplot Company) as an adjuvant. All peaches were subsequently dried for 30 minutes and then stored at 5 degrees Celsius for 4 weeks. Following cold storage all peaches were placed at room temperature for 1 day and then evaluated for flesh browning. Flesh browning was determined using a 6-point scale developed by Crisosto G. M. 2015 wherein a score of 1=no browning, 2=very slight browning in the pit cavity, 3=slight browning in the pit cavity and surrounding tissue, 4=moderate browning on less than 50% of the flesh, 5=severe browning on 50% to 75% of the flesh and 6=extreme browning covering most of the flesh. A flesh browning score of more than 3 was determined as a “flesh browning incident” and a score of less than 3 was determined as “healthy fruit” for efficacy purposes. […] To determine if the mixtures provided unexpected results, the observed combined efficacy (“OCE”) was divided by the expected combined efficacy (“ECE”) wherein the expected ECE is calculated by the Abbott method: wherein ECE is the expected combined efficacy and in which A and B are the quality score provided by application of the single active ingredients. If the ratio between the OCE of the mixture and the ECE of the mixture is greater than 1, then greater than expected interactions are present in the mixture. (Gisi, Synergistic Interaction of Fungicides in Mixtures, The American Phytopathological Society, 86:11, 1273-1279,1996).

[5] = tested on: Summer Flame 34 variety Peaches; assay: Flesh mealiness of waxed peaches after cold storage (Example 2); settings: for Fold Change from Control (Flesh Mealiness Average Score): 1.2 mM single active; for Flesh Mealiness Average Score: 1.2 mM single active in Prima Fresh 55EU wax, 5 degrees Celsius 25 days, 3 day room temperature, 3-point scale
Source text: as §1
Flesh mealiness was determined using a 3-point scale developed by Crisosto G. M. 2015 wherein a score of 1=juicy fruit, 2=moderately mealy fruit (small amount of juice released upon squeezing) and 3=severely mealy fruit (almost no juice released upon squeezing). A flesh mealiness score of 2 or more was determined as a “flesh mealiness incident” and a score of 1 was determined as “healthy fruit” for efficacy purposes.
as §2

SMILES	Fold Change from Control (% Electrolyte Leakage) (Cucumbers [1]; 0.3 mM single active)	% Electrolyte Leakage (Cucumbers [1]; 0.3 mM single active) [%]	Fold Change from Control (% Electrolyte Leakage) (Cucumbers [1]; 3 mM single active)	% Electrolyte Leakage (Cucumbers [1]; 3 mM single active) [%]	Fold Change from Control (Flesh Browning Average Score) [2]	Flesh Browning Average Score [2]	Fold Change from Control (% Healthy Fruit, decay) (Cucumbers [3]; 0.3 mM single active)	% Healthy Fruit (decay) (Cucumbers [3]; 0.3 mM single active) [%]	Fold Change from Control (% Healthy Fruit, decay) (Cucumbers [3]; 3 mM single active)	% Healthy Fruit (decay) (Cucumbers [3]; 3 mM single active) [%]	Fold Change from Control (% Healthy Fruit) ([4]; 0.33 mM single active)	% Healthy Fruit ([4]; 0.33 mM single active) [%]	Fold Change from Control (% Healthy Fruit) ([4]; 3.3 mM single active)	% Healthy Fruit ([4]; 3.3 mM single active) [%]	Fold Change from Control (Flesh Mealiness Average Score) [5]	Flesh Mealiness Average Score [5]
CC/C=C\CC1C(=O)CCC1CC(=O)OC (centres unmarked) [MJ, methyl jasmonate]	−0.06	60.3	−0.07	59.7	−0.09	2.79	−0.22	61.5	−0.09	71.4	1.18	28.0	2.26	41.8	−0.10	1.50
CC1=CC(=O)CC(C)(C)[C@@]1(O)/C=C/C(C)=C/C(=O)O [S-ABA, (S)-abscisic acid]	−0.05	61.3	−0.05	61.3	−0.016	3.03	0.05	82.1	−0.29	55.7	0.35	17.3	−0.33	8.6	−0.006	1.66
